Converted amounts (≈) assume the structure as drawn.
Assays:
Assay in all cases: Minimum Inhibitory Concentration (MIC), RPMI medium
Type in all cases: cell-based
[1] = tested on: A. fumigatus; details: Aspergillus fumigatus, >80% growth inhibition
Procedure: (§1) Between 1 and 5 mgs of the compound were accurately weighed out into a sterile Eppendorf tube. The compound was dissolved in DMSO to give a solution containing 5 mg/mL. Tubes were stored at −20° C. until required.
(§2) On the day of testing thawed solutions were vortex mixed to ensure homogeneity. 30 μL of solution was removed and added to 570 μL of sterile water in a separate sterile Eppendorf. The thoroughly mixed solution was used to prepare a series of doubling dilutions in water, in a deep well plate. Thirteen replicate plates were prepared using a Minitrak by aspirating 20 μL from each well into eleven clear polystyrene 96 well plates.
(§3) Spores of Aspergillus and Scedosporium were harvested from cultures grown on Sabarauds agar for 5 days, and resuspended in PBS/Tween 80 to approx 1×10^7 cfu/mL. Each organism suspension was diluted in RPMI medium, containing 2% glucose and 0.135 M MOPS buffer (pH 7.0) to 0.5-2×10^4 cfu/mL. 80 μL of an organism suspension was added to each well of the plate containing drug dilutions.
(§4) This produced MIC plates with a drug range 50-0.05 mg/L and organism inocula of 1-2×10^4 cfu/mL. All plates were incubated for 24-48 h at 35° C. Growth was assessed by monitoring the optical density at 485 nm for each well. The MIC of a compound is the lowest drug concentration that inhibits growth of an organism by >80% compared with a drug free control.

[2] = tested on: A. fumigatus 210; details: Aspergillus fumigatus, >80% growth inhibition
Procedure: as §1, §2, §3, §4

[3] = tested on: A. flavus; details: Aspergillus flavus, >80% growth inhibition
Procedure: as §1, §2, §3, §4

[4] = tested on: A. terreus 49; details: Aspergillus terreus, >80% growth inhibition
Procedure: as §1, §2, §3, §4

[5] = tested on: A. terreus; details: Aspergillus terreus, >80% growth inhibition
Procedure: as §1, §2, §3, §4

[6] = tested on: A. niger; details: Aspergillus niger, >80% growth inhibition
Procedure: as §1, §2, §3, §4

Structure (SMILES)	MIC [1]	MIC [2]	MIC [3]	MIC [4]	MIC [5]	MIC [6]
Cc1cc(-c2ccccc2)c(C(=O)C(=O)Nc2ccc(N3CCN(c4ccccn4)CC3)c(F)c2)n1C [Ref. Example 1, 2-(1,5-Dimethyl-3-phenyl-1H-pyrrol-2-yl)-N-[3-fluoro-4-(4-pyridin-2-yl-piperazin-1-yl)-phenyl]-2-oxo-acetamide]	0.04 to 0.06 µg/mL (≈ 0.0804 to 0.121 µM)	0.04 to 0.06 µg/mL (≈ 0.0804 to 0.121 µM)	> 0.06 µg/mL	0.04 to 0.06 µg/mL (≈ 0.0804 to 0.121 µM)	0.04 to 0.06 µg/mL (≈ 0.0804 to 0.121 µM)	0.04 to 0.06 µg/mL (≈ 0.0804 to 0.121 µM)
Cc1cc(-c2ccccc2)c(C(=O)C(=O)Nc2ccc(N3CCN(c4ccccn4)CC3)cc2F)n1C [Ref. Example 2, 2-(1,5-Dimethyl-3-phenyl-1H-pyrrol-2-yl)-N-[2-fluoro-4-(4-pyridin-2-yl-piperazin-1-yl)-phenyl]-2-oxo-acetamide]	0.04 to 0.06 µg/mL (≈ 0.0804 to 0.121 µM)	0.04 to 0.06 µg/mL (≈ 0.0804 to 0.121 µM)	0.04 to 0.06 µg/mL (≈ 0.0804 to 0.121 µM)	0.04 to 0.06 µg/mL (≈ 0.0804 to 0.121 µM)	0.04 to 0.06 µg/mL (≈ 0.0804 to 0.121 µM)	0.04 to 0.06 µg/mL (≈ 0.0804 to 0.121 µM)
Cc1cc(C)nc(N2CCN(c3ccc(NC(=O)C(=O)c4c(-c5ccccc5)cc(C)n4C)cc3C)CC2)c1 [Ref. Example 3, 2-(1,5-Dimethyl-3-phenyl-1H-pyrrol-2-yl)-N-{4-[4-(4,6-dimethyl-pyridin-2-yl)-piperazin-1-yl]-3-methyl-phenyl}-2-oxo-acetamide]	0.04 to 0.06 µg/mL (≈ 0.0767 to 0.115 µM)	0.04 to 0.06 µg/mL (≈ 0.0767 to 0.115 µM)	0.04 to 0.06 µg/mL (≈ 0.0767 to 0.115 µM)	0.04 to 0.06 µg/mL (≈ 0.0767 to 0.115 µM)	0.04 to 0.06 µg/mL (≈ 0.0767 to 0.115 µM)	0.04 to 0.06 µg/mL (≈ 0.0767 to 0.115 µM)
Cc1ccnc(N2CCN(c3ccc(NC(=O)C(=O)c4c(-c5ccccc5)cc(C)n4C)cc3)CC2)c1 [Ref. Example 4, 2-(1,5-Dimethyl-3-phenyl-1H-pyrrol-2-yl)-N-{4-[4-(4-methyl-pyridin-2-yl)-piperazin-1-yl]-phenyl}-2-oxo-acetamide]	0.04 to 0.06 µg/mL (≈ 0.081 to 0.122 µM)	0.04 to 0.06 µg/mL (≈ 0.081 to 0.122 µM)	0.04 to 0.06 µg/mL (≈ 0.081 to 0.122 µM)	0.04 to 0.06 µg/mL (≈ 0.081 to 0.122 µM)	0.04 to 0.06 µg/mL (≈ 0.081 to 0.122 µM)	0.04 to 0.06 µg/mL (≈ 0.081 to 0.122 µM)
Cc1cccc(N2CCN(c3ccc(NC(=O)C(=O)c4c(-c5ccccc5)cc(C)n4C)cc3)CC2)n1 [Ref. Example 5, 2-(1,5-Dimethyl-3-phenyl-1H-pyrrol-2-yl)-N-{4-[4-(6-methyl-pyridin-2-yl)-piperazin-1-yl]-phenyl}-2-oxo-acetamide]	0.04 to 0.06 µg/mL (≈ 0.081 to 0.122 µM)	0.04 to 0.06 µg/mL (≈ 0.081 to 0.122 µM)	0.04 to 0.06 µg/mL (≈ 0.081 to 0.122 µM)	0.04 to 0.06 µg/mL (≈ 0.081 to 0.122 µM)	0.04 to 0.06 µg/mL (≈ 0.081 to 0.122 µM)	> 0.06 µg/mL
Cc1cc(C)nc(N2CCN(c3ccc(NC(=O)C(=O)c4c(-c5ccccc5)cc(C)n4C)cc3O)CC2)c1 [Ref. Example 7, 2-(1,5-Dimethyl-3-phenyl-1H-pyrrol-2-yl)-N-{4-[4-(4,6-dimethyl-pyridin-2-yl)-piperazin-1-yl]-3-hydroxy-phenyl}-2-oxo-acetamide]	> 0.06 µg/mL	> 0.06 µg/mL	0.04 to 0.06 µg/mL (≈ 0.0764 to 0.115 µM)	> 0.06 µg/mL	> 0.06 µg/mL	> 0.06 µg/mL

Further lines, results first:

MIC [1]	MIC [2]	MIC [3]	MIC [4]	MIC [5]	MIC [6]	Structure (SMILES)
0.04 to 0.06 µg/mL (≈ 0.079 to 0.118 µM)	0.04 to 0.06 µg/mL (≈ 0.079 to 0.118 µM)	0.04 to 0.06 µg/mL (≈ 0.079 to 0.118 µM)	0.04 to 0.06 µg/mL (≈ 0.079 to 0.118 µM)	0.04 to 0.06 µg/mL (≈ 0.079 to 0.118 µM)	0.04 to 0.06 µg/mL (≈ 0.079 to 0.118 µM)	[2H]C1([2H])N(c2ccc(NC(=O)C(=O)c3c(-c4ccccc4)cc(C)n3C)cc2)C([2H])([2H])C([2H])([2H])N(c2ncc(F)cn2)C1([2H])[2H] [Example 3, 2-(1,5-dimethyl-3-phenyl-1H-pyrrol-2-yl)-N-(4-(4-(5-fluoropyrimidin-2-yl)piperazin-1-yl-2,2,3,3,5,5,6,6-d8)phenyl)-2-oxoacetamide]
0.04 to 0.06 µg/mL (≈ 0.0796 to 0.119 µM)	0.04 to 0.06 µg/mL (≈ 0.0796 to 0.119 µM)	0.04 to 0.06 µg/mL (≈ 0.0796 to 0.119 µM)	0.04 to 0.06 µg/mL (≈ 0.0796 to 0.119 µM)	0.04 to 0.06 µg/mL (≈ 0.0796 to 0.119 µM)	0.04 to 0.06 µg/mL (≈ 0.0796 to 0.119 µM)	[2H]c1c([2H])c(N2CCN(c3ncc(F)cn3)CC2)c([2H])c([2H])c1NC(=O)C(=O)c1c(-c2ccccc2)cc(C)n1C [Example 4, 2-(1,5-dimethyl-3-phenyl-1H-pyrrol-2-yl)-N-(4-(4-(5-fluoropyrimidin-2-yl)piperazin-1-yl)phenyl-2,3,5,6-d4)-2-oxoacetamide]

— patent US10596150B2, “Antifungal agents” (F2G LIMITED, priority 2014, dated 2020)
